This is an account of results in patent US20240279205A1, “NOVEL BENZIMIDAZOLE DERIVATIVE” (Carna Biosciences, Inc., priority 2020, published 2024).

Structures can show the parent of a compound that is named as a salt.

The first assay deals with T1, human STING (hSTING) (Homo sapiens, UniProt Q86WV6).
T1 construct: host or cells: HEK-Blue ISG cells (HEK293-derived SEAP reporter line)
T1 sequence (Q86WV6 whole entry H232R): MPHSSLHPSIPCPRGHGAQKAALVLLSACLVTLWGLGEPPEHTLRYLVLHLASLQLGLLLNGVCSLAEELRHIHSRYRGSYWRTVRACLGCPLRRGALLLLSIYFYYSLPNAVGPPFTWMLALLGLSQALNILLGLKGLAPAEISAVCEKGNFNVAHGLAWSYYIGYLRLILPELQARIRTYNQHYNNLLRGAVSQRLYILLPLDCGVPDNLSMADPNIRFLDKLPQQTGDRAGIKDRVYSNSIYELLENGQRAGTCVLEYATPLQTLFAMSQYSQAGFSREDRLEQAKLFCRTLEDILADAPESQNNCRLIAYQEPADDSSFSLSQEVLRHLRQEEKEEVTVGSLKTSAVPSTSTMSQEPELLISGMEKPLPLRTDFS
Description: Inhibition test of intracellular human STING (hSTING) pathway using SEAP reporter cells (HEK-Blue ISG), stimulation with Compound 3. The format is cell-based. Details: hSTING inhibitory activity: scale not given here. Particulars: Compound 3 10 nM stimulation, 21 hours. The protocol: Inhibition test of intracellular human STING (hSTING) pathway using reporter cells
Since STING activates the transcription factor IRF3 upon ligand stimulation, the activity of STING can be evaluated by a reporter assay using a secretory alkaline phosphatase (SEAP reporter) integrated downstream of an IRF-inducible promoter.
That is, the hSTING inhibitory activity of the test compound was evaluated using HEK-Blue™MISG cells (manufactured by Invivogen, #hkb-isg-1) incorporating a SEAP reporter. Activation of hSTING was performed by stimulation with the small molecule ligand Compound 3 as described in the literature (Ramanjulu, J. M., et al., Nature. 2018, 564 (7736), 439-443). HEK-Blue™MISG cells were seeded in a 96-well plate and cultured overnight at 37° C. in a 5% CO2 incubator. To each well of this cell culture plate, a test compound solution adjusted to a final concentration of 0.1 to 10 µM of the test compound was added, cultured for 1 hour in a CO2 incubator, and then Compound 3 (final concentration 10 nM) was added and further cultured in a CO2 incubator for 21 hours. After collecting the culture supernatant of each well, the reporter activity was measured by color development reaction with alkaline phosphatase.
The reporter activity of the test compound non-addition and Compound 3 addition group was set to 100%, and the reporter activity of the test compound non-addition and Compound 3 non-addition group was set to 0%. The IC50 value was determined by regression analysis of the inhibitory rate determined from the reporter activity at each compound concentration and the test compound concentration (logarithm).
Regarding `Clc1ccc2[nH]cc(Nc3nc4cc(C5=CCOCC5)ccc4[nH]3)c2n1` [Embodiment 105, N-(5-chloro-1H-pyrrolo[3,2-b]pyridin-3-yl)-5-(3,6-dihydro-2H-pyran-4-yl)-1H-benzo[d] imidazol-2-amine], the hSTING inhibitory activity entry is “* *”.
Take `Cc1cccc2[nH]c(Nc3c[nH]c4ccc(Br)cc34)nc12` [Example 5, N-(5-bromo-1H-indol-3-yl)-4-methyl-1H-benzo[d]imidazol-2-amine]: the hSTING inhibitory activity entry is “* *”.
With `Ic1ccc2[nH]cc(Nc3nc4ccccc4[nH]3)c2c1` [Example 16, N-(5-iodo-1H-indol-3-yl)-1H-benzo[d]imidazol-2-amine], the hSTING inhibitory activity entry is listed as “* *”.
Still for that read-out and setting: under `CN(C)n1c(Nc2c[nH]c3ccc(Cl)cc23)nc2cc(C(F)(F)F)c(F)cc21` [Embodiment 275, N2-(5-Chloro-1H-indol-3-yl)-6-fluoro-N1,N1-dimethyl-5-(trifluoromethyl)-1H-benzo[d] imidazole-1,2-didiamine] stands “* * *”; under `Cc1c(C(F)(F)F)ccc2c1nc(Nc1c[nH]c3ccc(Cl)cc13)n2C` [Embodiment 276, N-(5-Chloro-1H-indol-3-yl)-1,4-dimethyl-5-(trifluoromethyl)-1H-benzo[d]imidazol-2-amine], “* * *”; under `Cn1c(Nc2c[nH]c3ccc(Br)nc23)nc2cc(C(F)(F)F)ccc21` [Embodiment 43, N-(5-bromo-1H-pyrrolo[3,2-b]pyridin-3-yl)-1-methyl-5-(trifluoromethyl)-1H-benzo[d]imidazol-2-amine], “* * *”.
As to `Brc1ccc2[nH]cc(Nc3nc4cc(OCc5ccccc5)ccc4[nH]3)c2n1` [Embodiment 69, 5-(benzyloxy)-N-(5-bromo-1H-pyrrolo[3,2-b]pyridin-3-yl)-1H-benzo[d]imidazol-2-amine], the hSTING inhibitory activity result is “* *”.
Consider `CN(c1ccccc1)S(=O)(=O)c1ccc2[nH]c(Nc3c[nH]c4ccc(Cl)nc34)nc2c1` [Embodiment 75, 2-[(5-Chloro-1H-pyrrolo[3,2-b]pyridin-3-yl)amino]-N-methyl-N-phenyl-1H-benzo[d]imidazole-5-sulfonamide], for which the hSTING inhibitory activity entry was “* *”.
On to `ClC(=CC1CC1)c1ccc2[nH]c(Nc3c[nH]c4ccc(Cl)nc34)nc2c1` [Embodiment 126, N-(5-chloro-1H-pyrrolo[3,2-b]pyridin-3-yl)-5-(1-chloro-2-cyclopropylvinyl)-1H-benzo[d] imidazole-2-amine], for which the hSTING inhibitory activity entry was “* *”.

Staying with this assay, now noted: Compound 3 10 nM stimulation, 21 hours, read-out: hSTING inhibitory activity.
As to `COCCOc1ccc2[nH]c(Nc3c[nH]c4ccc(Cl)nc34)nc2c1` [Embodiment 140, N-(5-Chloro-1H-pyrrolo[3,2-b]pyridin-3-yl)-5-(2-methoxyethoxy)-1H-benzo[d]imidazol-2-amine], the IC50 is at least 10 µM.
In the case of `Cn1c(Nc2c[nH]c3ccc(Cl)nc23)nc2cc(Oc3cccnc3)ccc21` [Embodiment 198, N-(5-chloro-1H-pyrrolo[3,2-b]pyridin-3-yl)-1-methyl-5-(pyridin-3-yloxy)-1H-benzo[d]imidazole-2-amine], the IC50 is at least 10 µM.
On to `Cn1c(Nc2c[nH]c3ccc(Br)nc23)nc2ccc(C(F)(F)F)cc21` [Embodiment 42, N-(5-bromo-1H-pyrrolo[3,2-b]pyridin-3-yl)-1-methyl-6-(trifluoromethyl)-1H-benzo[d]imidazol-2-amine], for which the IC50 is at least 10 µM.
`CN1CCC(Oc2ccc3[nH]c(Nc4c[nH]c5ccc(Cl)nc45)nc3c2)CC1` [Embodiment 121, N-(5-Chloro-1H-pyrrolo[3,2-b]pyridin-3-yl)-5-[(1-methylpiveridin-4-yl)oxy]-1H-benzo[d]imidazole-2-amine]: the IC50 is 1 to 10 µM.
On the same count and under the same terms, the result for `Cc1cnc2[nH]cc(Nc3nc4cc(Oc5ccccc5)ccc4[nH]3)c2c1` [Embodiment 107, N-(5-methyl-1H-pyrrolo[2,3-b]pyridin-3-yl)-5-phenoxy-1H-benzo[d]imidazol-2-amine] reads at least 10 µM; that for `Fc1ccc2[nH]cc(Nc3nc4ccccc4[nH]3)c2c1` [Example 14, N-(5-fluoro-1H-indol-3-yl)-1H-benzo[d]imidazol-2-amine], at least 10 µM; that for `Brc1cc2c(Nc3nc4cc(Oc5ccccc5)ccc4[nH]3)c[nH]c2cn1` [Example 11, N-(5-bromo-1H-pyrrolo[2,3-c]pyridin-3-yl)-5-phenoxy-1H-benzo[d]imidazol-2-amine], 1 to 10 µM.
As for `Cn1c(Nc2c[nH]c3ccc(Cl)nc23)nc2cc(F)c(F)cc21` [Embodiment 138, N-(5-Chloro-1H-pyrrolo[3,2-b]pyridin-3-yl)-5,6-difluoro-1-methyl-1H-benzo[d]imidazol-2-amine], the IC50 was at least 10 µM.
Turning to `CN(C)CCn1c(Nc2c[nH]c3ccc(Cl)nc23)nc2ccc(Oc3ccccc3)cc21` [Embodiment 134, N-(5-Chloro-1H-pyrrolo[3,2-b]pyridin-3-yl)-1-[2-(dimethylamino)ethyl]-6-phenoxy-1H-benzo[d] imidazole-2-amine diformate], the IC50 is at least 10 µM.
Consider `COCCn1c(Nc2c[nH]c3ccc(Cl)nc23)nc2ccc(F)c(F)c21` [Embodiment 201, N-(5-chloro-1H-pyrrolo[3,2-b]pyridin-3-yl)-6,7-difluoro-1-(2-methoxyethyl)-1H-benzo[d]imidazole-2-amine], for which the IC50 is at least 10 µM.
As for `Clc1ccc2[nH]cc(Nc3nc4c(-c5ccncc5)cccc4[nH]3)c2n1` [Embodiment 148, N-(5-Chloro-1H-pyrrolo[3,2-b]pyridin-3-yl)-4-(pyridin-4-yl)-1H-benzo[d]imidazol-2-amine], the IC50 is at least 10 µM.
In the case of `FC(F)(F)c1cnc2[nH]cc(Nc3nc4cc(Oc5ccccc5)ccc4[nH]3)c2c1` [Embodiment 74, 5-phenoxy-N-[5-(trifluoromethyl)-1H-pyrrolo[2,3-b]pyridin-3-yl]-1H-benzo[d]imidazol-2-amine formate], the IC50 lay in the range of 1 to 10 µM.
`FC(F)(F)c1ccc2c(c1)nc(Nc1c[nH]c3ccc(Cl)cc13)n2N1CCOCC1` [Embodiment 235, N-(5-Chloro-1H-indol-3-yl)-1-morpholino-5-(trifluoromethyl)-1H-benzo[d]imidazol-2-amine]: the IC50 lay in the range of 1 to 10 µM.
For `Cn1cc(-c2ccc3[nH]c(Nc4c[nH]c5ccc(Cl)nc45)nc3c2)cn1` [Embodiment 102, N-(5-chloro-1H-pyrrolo[3,2-b]pyridin-3-yl)-5-(1-methyl-1H-pyrazol-4-yl)-1H-benzo[d]imidazole-2-amine], the IC50 was at least 10 µM.
On to `COCCn1c(Nc2c[nH]c3ccc(Cl)nc23)nc2ccc(C(F)(F)F)cc21` [Embodiment 179, N-(5-chloro-1H-pyrrolo[3,2-b]pyridin-3-yl)-1-(2-methoxyethyl)-6-(trifluoromethyl)-1H-benzo[d]imidazol-2-amine], for which the IC50 is at least 10 µM.
Take `Cn1c(Nc2c[nH]c3ccc(Cl)nc23)nc2ccc(C(F)(F)F)cc21` [Embodiment 46, N-(5-Chloro-1H-pyrrolo[3,2-b]pyridin-3-yl)-1-methyl-6-(trifluoromethyl)-1H-benzo[d] imidazol-2-amine]: the IC50 was at least 10 µM.
For `CCc1ccc2[nH]cc(Nc3nc4cc(C(F)(F)F)ccc4n3C)c2n1` [Embodiment 173, N-(5-ethyl-1H-pyrrolo[3,2-b]pyridin-3-yl)-1-methyl-5-(trifluoromethyl)-1H-benzo[d]imidazol-2-amine], the IC50 is at least 10 µM.
